Laboratory results from US8268363B2, “Pharmaceutical combination preparation containing glycyrrhizine, zinc, and a compound comprising a thiol group or a group that is metabolized thereto” (priority 2003, dated 2012).

Test system: flu symptoms (colds, flu, viral infection of the upper respiratory tract)
Experiment: clinical studies in flu symptoms: single substances and the combination
Format: in vivo, human
Details: single treatment; for effect on a scale of 1-10 (1 least effect, 10 maximum effect): daily dose divided in three doses; for average duration of the illness: daily dose divided in three doses (zinc 125 mg, N-acetylcysteine 2400 mg, glycyrrhicinic acid 1500 mg), without treatment normally 7 days
Description: In clinical studies each single substance was tested in flu symptoms (colds, flu, viral infection of the upper respiratory tract) whose duration without treatment normal lasted 7 days.
a) Zinc as a single treatment: • 125mg per day, divided in three doses:
b) N-Acetylcysteine • 2400 mg, divided in three doses;
c) Glycyrrhicinic acid • 1500 mg, divided in three doses;
The average duration of illness with the treatment combination of all three of the above substances a), b), and c) in the majority of the cases the duration of the illness was shortened to 24 hours or less. […] 24 hours later, 85% of the patients were completely without symptoms and able to return to work. The maximum duration in a few cases lasted 5 days.
Further, 20 children between the ages of 7 to 15 years old were treated with half of the doses from the combination of a) b) and c). The results were the same as for the adults.

Molecule	effect on a scale of 1-10 (1 least effect, 10 maximum effect)	average duration of the illness [days]
CC(=O)N[C@@H](CS)C(=O)O [N-Acetylcysteine]	5	4
Glycyrrhicinic acid	2	5.0
Zinc	2	5
